The values that follow come from ChEMBL document CHEMBL4417629, “Inhibitors of RAD52 Recombination Protein and Methods Using Same” (2018).

One test has as its system CAPAN-1. Briefly: Growth inhibition of BRCA2-deficient human Capan1 cells at 2.5 to 10 uM following media refreshment every 3 days and measured on day 10 by CellTiter-Glo assay. Type of test: functional, cell-based.
The target of test [1] is T1, DNA repair protein RAD51 homolog 1 (Homo sapiens) (UniProt Q06609).
T1 sequence (whole entry): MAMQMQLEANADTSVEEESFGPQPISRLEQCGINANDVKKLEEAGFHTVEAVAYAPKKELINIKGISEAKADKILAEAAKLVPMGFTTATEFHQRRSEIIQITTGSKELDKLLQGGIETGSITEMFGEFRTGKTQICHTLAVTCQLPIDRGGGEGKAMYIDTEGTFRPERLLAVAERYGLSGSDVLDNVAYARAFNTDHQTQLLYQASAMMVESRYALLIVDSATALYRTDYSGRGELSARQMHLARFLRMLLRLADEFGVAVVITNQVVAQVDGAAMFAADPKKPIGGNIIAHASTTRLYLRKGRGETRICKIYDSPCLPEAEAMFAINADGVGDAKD
The experiment in a line: Inhibition of RAD51 (unknown origin) assessed as inhibition of DNA pairing by measuring D-loop formation between [32P]-ssDNA and homologous supercoiled pUC19 DNA at 30 uM incubated for 15 mins by gel electrophoresis method relative to control.

Another test is filed under the species Homo sapiens. The experiment in a line: Growth inhibition of BRCA1-deficient human UWB1.289 cells at 2.5 to 10 uM following media refreshment every 3 days and measured on day 10 by CellTiter-Glo assay. Type of test: functional.
The target in test [2] is T1, DNA repair protein RAD51 homolog 1 (Homo sapiens). Briefly: Inhibition of RAD51 (unknown origin) assessed as inhibition of DNA pairing by measuring D-loop formation between [32P]-ssDNA and homologous supercoiled pUC19 DNA at 10 times RAD52 IC50 incubated for 15 mins by gel electrophoresis method relative to control.
In test [3] the target is T2, DNA repair protein RAD52 homolog (Homo sapiens) (UniProt P43351).
T2 sequence (whole entry): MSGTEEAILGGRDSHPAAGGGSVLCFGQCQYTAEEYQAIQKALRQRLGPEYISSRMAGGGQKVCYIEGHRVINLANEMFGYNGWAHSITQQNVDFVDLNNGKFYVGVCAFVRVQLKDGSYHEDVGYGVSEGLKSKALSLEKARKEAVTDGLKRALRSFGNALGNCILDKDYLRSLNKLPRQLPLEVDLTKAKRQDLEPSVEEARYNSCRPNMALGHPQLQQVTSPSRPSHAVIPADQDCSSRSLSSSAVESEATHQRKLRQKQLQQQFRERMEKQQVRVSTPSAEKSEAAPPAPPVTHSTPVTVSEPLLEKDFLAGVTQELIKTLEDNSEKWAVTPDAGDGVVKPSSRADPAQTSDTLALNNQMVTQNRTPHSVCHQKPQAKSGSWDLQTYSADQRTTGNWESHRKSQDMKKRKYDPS
The experiment in a line: Inhibition of RAD52 (unknown origin) assessed as inhibition of DNA pairing using [32P]-ssDNA by measuring D-loop formation incubated for 15 mins by gel electrophoresis method.

The next test relates to Salmon testes DNA. The experiment in a line: Binding affinity to salmon sperm DNA incubated for 20 mins by acridine orange displacement based fluorescence polarization assay. The class given is nucleic-acid assay. To be noted: Salmonidae.
The target in test [4] is T2, DNA repair protein RAD52 homolog (Homo sapiens). The experiment in a line: Inhibition of RAD52 (unknown origin) expressed in BCR-ABL1-positive and BRCA1-deficient mouse 32Dcl3 cells expressing GFP-RAD52 assessed as cisplatin-induced RAD52 foci formation by measuring fraction of cell without foci at 2.5 uM by AlexaFluor-594 staining based inverted fluorescence microscopy (reference value: 48.4 +/- 6.2%). Details: scale not given: the % may be the effect or the level left.

The target is the same in test [5]. The experiment in a line: Inhibition of RAD52 (unknown origin) expressed in BCR-ABL1-positive and BRCA1-deficient mouse 32Dcl3 cells expressing GFP-RAD52 assessed as reduction in cisplatin-induced RAD52 foci formation at 2.5 uM by AlexaFluor-594 staining based inverted fluorescence microscopy relative to control. The class given is cell-based.

Active and inactive are the calls of the source. The rule behind the calls is not given here.

For the molecule `Cn1nc(-c2ccc(Cl)cc2)c2cc(C(=O)NCCCN3CCCCCC3)sc21`, the “growth inhibition (GI)” value in the test on CAPAN-1 and in the test filed under Homo sapiens was “Active” in each case. Also, the values for the inhibition in test [1], in test [2] and in test [3] were greater than 90%, 48.6% and “Dose-dependent effect”, respectively.

In the case of `COc1ccc(-c2nc(C(=O)NCCCN3CCOCC3)cc3c2[nH]c2ccccc23)cc1OC`, the inhibition in test [1] was greater than 90%; in test [2] it was 93.7%; in test [3] it was “Dose-dependent effect”.

Take `CCN1CCN(CCCNC(=S)Nc2ccc3nc(N(C)CCN)cc(C)c3c2)CC1`: the values for the inhibition in test [1], in test [2] and in test [3] were greater than 90%, 111% and “Dose-dependent effect”, respectively.

In the case of `CCCN(CCC)CCCNC(=S)Nc1ccc2nc(N3CCN(C)CC3)cc(C)c2c1`, the figures for the inhibition in test [1], in test [2] and in test [3] were greater than 90%, 111% and “Dose-dependent effect”, respectively.

For `Cn1nc(-c2ccc(Cl)cc2)c2cc(C(=O)NCCCN3CCCC3)sc21`, the results for the inhibition in test [1], in test [2] and in test [3] were greater than 90%, 35.3% and “Dose-dependent effect”, respectively.

On to `COc1ccc(OC)c(Nc2nc(NCCCO)c3ccccc3n2)c1`, for which, in the test on Salmon testes DNA, the outcome was inactive. Also, the “growth inhibition (GI)” value with CAPAN-1 and in the test filed under Homo sapiens was “Active” throughout. The values for the inhibition in test [1], in test [2] and in test [3] were greater than 90%, 75.6% and “Dose-dependent effect”, respectively. Moreover, the Activity in test [4] amounted to 71.9%. Besides, the fold change (FC) in test [5] lay within 2 to 2.5.

In the case of `CCCCN(CC)CCNC(=O)c1cc2c(-c3ccc(Cl)cc3)nn(C)c2s1`, the “growth inhibition (GI)” value in the test on CAPAN-1 and in the test filed under Homo sapiens was “Active” throughout. In addition, the inhibition in test [1] is greater than 90%; in test [2] it was 58.6%; in test [3] it was “Dose-dependent effect”.

For `CCN(CC)CCCN(Cc1cc2cc3c(cc2nc1O)OCO3)C(S)=NCCCN(C)C`, the inhibition in test [1] is greater than 90%; in test [2], 102%; in test [3] it was “Dose-dependent effect”.

For the molecule `COc1ccc(OC)c(Nc2nc(NCCO)c3ccccc3n2)c1`, the “growth inhibition (GI)” value in the test with CAPAN-1 and in the test listed under Homo sapiens was “Active” in each case. Moreover, the inhibition is greater than 90% in test [1], 75.1% in test [2] and “Dose-dependent effect” in test [3].

Turning to `Cc1cc(N2CCN(C)CC2)nc2ccc(NC(S)=NCCCN3CCN(C)CC3)cc12`, the inhibition in test [1] is greater than 90%; in test [2], 112%; in test [3], “Dose-dependent effect”.

For `CN1CCN(CCCNC(=O)c2cc3c(-c4ccc(Cl)cc4)nn(C)c3s2)CC1`, the figures for the inhibition in test [1], in test [2] and in test [3] were greater than 90%, 38.4% and “Dose-dependent effect”, respectively.

Consider `Cc1ccc(-c2nc(C(=O)NCCCN3CCOCC3)cc3c2[nH]c2ccccc23)cc1`, for which the figures for the inhibition in test [1], in test [2] and in test [3] were greater than 90%, 73.6% and “Dose-dependent effect”, respectively.

As to `CCCCN(CC)CCCN=C(S)Nc1ccc2nc(N3CCN(C)CC3)cc(C)c2c1`, the inhibition in test [1] was greater than 90%; in test [2] it was 108%; in test [3] it was “Dose-dependent effect”.

Turning to `COc1ccccc1Nc1nc(NCCCO)c2ccccc2n1`, the “growth inhibition (GI)” value in the test on CAPAN-1 and in the test filed under Homo sapiens was “Active” each time. For the same molecule, the results for the inhibition in test [1], in test [2] and in test [3] were greater than 90%, 89.7% and “Dose-dependent effect”, respectively.

For the molecule `Cc1ccc(C(=O)c2oc3ccc(Cl)cc3c2NC(=O)CN2CCN(C)CC2)cc1`, the inhibition is greater than 90% in test [1], 92.5% in test [2] and “Dose-dependent effect” in test [3].

In the case of `Cc1c(C(=O)Nc2ccc(S(=O)(=O)N(C)C3CCN(C)CC3)cc2)oc2c(Cl)cccc12`, the inhibition is greater than 90% in test [1], 97.5% in test [2] and “Dose-dependent effect” in test [3].
